Assay results from patent US9347942B2, “Ultrasensitive cell based sensors and uses thereof” (CANVAX BIOTECH SL, priority 2010, dated 2016).

Key:
CHRM2 = target: T1, CHRM2 (Homo sapiens, UniProt P08172); assay: Exocytosis time optimisation, granzyme B FRET readout (Example 12); format: cell-based; details: agonist 10 uM
T1 construct: the entire human GPCR; mouse immunoglobulin kappa signal peptide (N); expressed in transfected cells
T1 sequence (P08172 2-466): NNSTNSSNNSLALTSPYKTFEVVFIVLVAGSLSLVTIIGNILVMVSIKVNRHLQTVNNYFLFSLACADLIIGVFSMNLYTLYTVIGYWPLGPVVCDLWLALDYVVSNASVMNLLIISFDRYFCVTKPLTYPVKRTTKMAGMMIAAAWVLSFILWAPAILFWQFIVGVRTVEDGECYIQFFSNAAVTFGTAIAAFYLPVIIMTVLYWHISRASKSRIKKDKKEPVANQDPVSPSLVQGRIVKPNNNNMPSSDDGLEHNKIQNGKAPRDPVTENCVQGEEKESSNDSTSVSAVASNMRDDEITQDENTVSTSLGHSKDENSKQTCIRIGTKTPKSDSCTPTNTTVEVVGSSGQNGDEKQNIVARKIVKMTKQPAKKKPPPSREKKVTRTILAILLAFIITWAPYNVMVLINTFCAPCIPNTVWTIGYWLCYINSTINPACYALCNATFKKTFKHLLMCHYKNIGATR
From the text: An experiment was designed to optimize assay conditions such as: exocytosis time, number of steps needed for assay and uses of cells in suspension. Cells developed in example #9 expressing both a GPCR and human granzyme B were used in this example for optimization of exocytosis time. GPCRs included were CHRM2 (an alpha-i coupled GPCR) and bradykinin type B1 receptor (an alpha-q coupled GPCR). Carbachol and kallinin from Sigma-Aldrich (USA) were used as ligands for CHRM2 and bradykinin type B1 receptor, respectively and used at 10 uM final concentration in HBSS buffer. Cells were seeded the night before experiment at 20.000 cells per well of a 96-well microplate in 100 uL of complete cell culture medium. Next day cells were washed with HBSS buffer and incubated with the ligand (agonist) at 10 uM of each GPCR in 30 uL of HBSS buffer at 37 Celsius degrees for 5, 15, 30 or 60 minutes and after centrifugation at 400 g for 5 minutes supernatants were analysed for human granzyme B activity using FAM-[…]-TAMRA at 1 uM final concentration as the human granzyme B substrate. Released FAM was measured by excitation at 485 nm and emission at 535 nm in a BMG Labtech microplate fluorimeter in 96 well microplates. Microplates were incubated at 37 Celsius degrees on the reader and were kinetically read at 0, 15, 30, 45 and 60 minutes. Control wells with substrate only in HBSS buffer were included to subtract autofluorescence of substrates to both cells treated with ligands and to cells treated with HBSS buffer only. […] The signal to background is lower at longer exocytosis times due to the higher increase in basal release than the increase in specific signal after the first 5 to 15 minutes. Thus, any exocytosis time from probably less than 5 minutes to at least 60 minutes may be used for the methods of the present invention but longer exocytosis times produce a sensor with a lower signal to background, exocytosis is nearly complete at 5 minutes and signal to background is good for a robust sensor.

hIL8 receptor (hIL8RA) = target: T2, hIL8 receptor (hIL8RA) (Homo sapiens, UniProt P25024); assay: Multiplex assay, Sensor A channel (hIL8RA and human granzyme A) (Example 14); format: cell-based; details: Condition 4: Sensor A 12500 + Sensor B 5000 cells, carbachol 10 uM, no IL8, granzyme A substrate 1 uM
T2 construct: the entire human GPCR; mouse immunoglobulin kappa signal peptide (N); expressed in transfected cells
T2 sequence (P25024 3-350 limits assumed): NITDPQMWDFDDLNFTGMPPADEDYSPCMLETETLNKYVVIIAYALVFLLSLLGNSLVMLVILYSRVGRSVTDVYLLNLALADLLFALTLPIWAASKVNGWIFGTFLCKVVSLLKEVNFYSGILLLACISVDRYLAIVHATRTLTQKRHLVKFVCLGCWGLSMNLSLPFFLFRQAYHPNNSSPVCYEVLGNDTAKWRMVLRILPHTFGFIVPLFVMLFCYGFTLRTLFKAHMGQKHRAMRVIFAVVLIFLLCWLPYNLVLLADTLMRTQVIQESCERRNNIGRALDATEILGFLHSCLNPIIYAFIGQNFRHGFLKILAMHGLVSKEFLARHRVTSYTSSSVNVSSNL
From the text: The principle of multiplex reactions is illustrated in FIG. 5. RBL2H3 cells were stably transfected with a pair of a GPCR as exocytosis modulator and a granzyme as a granule stored reporter as described in example 9. Combinations included were: hIL8 receptor (hIL8RA) and human granzyme A (Sensor A) and CHRM2 and granzyme B expressing cells of example #12 (Sensor B). Human IL8 was used as agonist of hll_8R while carbachol was used as CHRM2 agonist. […] As both substrates uses the same pair of fluorophore (FAM) and quencher (TAMRA) only one substrate could be added to reaction vessel for specific detection at 535 nm after excitation at 485 nm. […] Sensors, agonists and substrates were mixed in a total volume of 20 uL of HBSS in a black walled 384 well microplate and the microplate was incubated at 37 Celsius degrees in a BMG-Labtech microplate fluorimeter and read at 0, 15, 30, 45 and 60 minutes.

In the case of `C[N+](C)(C)CCOC(N)=O` [Carbachol, carbachol], the “exocytosis, % of maximal” value (CHRM2; 5 minutes, 20.000 cells) is reported as > 90%, the “signal to background (S/B)” value (CHRM2; medium taken at 5 to 15 minutes) is reported as 20-22 and the “signal to background (S/B)” value (CHRM2; medium taken at 30 minutes) is reported as 15-17. The “signal to background (S/B)” value (CHRM2; medium taken at 60 minutes) was 8-10 and the “Signal to background at 30 min” value (hIL8 receptor (hIL8RA)) was 0.78.
